Data taken from US20090104705A1, “Ascorbic acid conjugates” (priority 2005, published 2009).

How the values were obtained:
[1] = test system: ICAM-1 expression in BAECs; assay: ICAM-1 expression in BAECs by ELISA; type: cell-based; conditions: 25 μM, 24 hours, 20% bovine calf serum, data not shown
Method: The effect of HNE and ascorbylated HNE on endothelial activation also was determined. To this end, BAECs were exposed to 25 μM HNE or ascorbylated HNE for 24 hours in the presence of 20% bovine calf serum, and subsequently ICAM-1 expression was measured by ELISA. […] In contrast, HNE was reported to inhibit LPS-induced NFκB activation in human monocytic cells (Herbst et al. 1999; Page et al. 1999) and constitutive ICAM-1 expression in HUVECs (Herbst et al. 1999). […] However, unlike the incubation conditions with 20% bovine calf serum, the experiments by Herbst and colleagues were conducted in a serum-free environment in order to avoid inactivation of HNE by serum proteins (see above).

[2] = test system: ICAM-1 expression in HUVECs; conditions: serum-free environment; cited from earlier work
[3] = test system: human aortic endothelial cells (HAECs); assay: MTT assay, cytotoxicity in human aortic endothelial cells; type: cell-based; conditions: 25 to 100 μM, up to 66 hours, 20% bovine calf serum
Source text: FIG. 13 illustrates the results of cytotoxicity studies in human aortic endothelial cells (HAECs) using the MTT assay (described below). […] The observed cytotoxic effect of HNE is relatively moderate, which is likely due to the presence of 20% bovine calf serum in the culture medium of HAECs, causing inactivation of HNE by adduction to serum proteins and other serum constituents. […] FIG. 13, panel C further illustrates the large difference in cytotoxicity between HNE and ascorbylated HNE in HAECs treated with both compounds at 75 or 100 μM for 42 hours. The results of these experiments strongly support the hypothesis that ascorbylation represents a detoxification pathway for HNE and other electrophilic LPO products.
With reference to […], Cells were grown to confluence in 96-well plates and exposed to 25, 50, 75 or 100 μM HNE or ascorbylated HNE for up to 66 hours (Panels A and B). Cell viability was assessed by spectrophotometric (590 nm) measurement of the reduction of MTT (3-[4,5-dimethylthiazol-2-yl]-2,5-diphenyltetrazolium bromide) by dehydrogenases in respiring mitochondria, and expressed as a percentage of the control (1.0% ethanol). […] The data are presented as mean of five observations (±SD). Asc-HNE=ascorbylated HNE; numbers in legends refer to μM concentrations.

[4] = Stability of ascorbyl-HNE conjugate in stored plasma; type: physicochemical, human
Method: A problem with current biomarkers of oxidative stress is the formation of ex vivo-artifacts arising from sample instability or sample handling. The presence of the ascorbyl-HNE adduct in plasma is not due to an ex vivo-artifact. Moreover, the stability of the ascorbyl-HNE adduct was confirmed to ensure that its concentration was not fluctuating as a function of time. Specifically, aliquots of a plasma sample were analyzed over a time period of one month.

[5] = test system: ICAM-1 expression in HAECs; assay: ICAM-1 expression in HAECs by ELISA; type: cell-based, human; conditions: 35 μM, 24 hours, 5% bovine calf serum
Source text: This example establishes that vitamin C has the ability to abolish HPODE-induced endothelial activation. HAECs were exposed to HPODE or HPODE pretreated with ascorbate. […] Thus, vitamin C pre-treatment of HPODE leads to inactivation of HPODE with respect to its effect on ICAM-1 expression, which supports the proposition that vitamin C-induced degradation of LOOHs and subsequent ascorbylation of the resultant LPO products represents a pathway for elimination and detoxification of LOOHs and their degradation products (Scheme 2). […] As mentioned earlier, there is extensive data in the literature showing that specific LPO products elicit endothelial activation.
With reference to FIG. 14 HPODE was prepared by soybean lipoxygenase treatment of a solution of linoleic acid in phosphate buffer, pH 8.2, with stirring and air bubbling. […] The solution was acidified, and the mixture of HPODE-derived products was recovered from the aqueous solution by extraction with ethyl acetate. The combined ethyl acetate layers were washed with water to remove traces of ascorbic acid. The residue on evaporation was dissolved in 1.0 ml of ethanol, and the solution termed ‘ascorbate-treated HPODE’. […] Activation of HAECs was measured by quantifying ICAM-1 using a commercially available ELISA kit (Zhang and Frei 2001).

stability of the conjugate in plasma ([4]; 4° C.) | change in the ascorbyl-HNE conjugate concentration ([4]; plasma aliquots over one month at 4° C.) [%] | Molecule | change of ICAM-1 expression compared to the vehicle control [1] | concentration at which the inhibitory effect on ICAM-1 expression was observed [2] [µM] | cell viability of HAECs (MTT assay) [3] | ICAM-1 expression compared to the vehicle control [5]
 |  | CCCCCC(O)C=CC=O (centres unmarked) [HNE, 4-hydroxy-2-nonenal] | Neither HNE nor ascorbylated HNE caused a change of ICAM-1 expression | ≥ 5 | progressive decrease in cell viability | 
stable for at least a month | 5.2 | CCCCCC1OC(O)CC1C1(O)C(=O)OC2C(O)COC21O (stereo not drawn) [ascorbyl-HNE conjugate, 3,3α,6-trihydroxy-3-(5-hydroxy 2-pentyl-tetrahydro-furan-3-yl)-tetrahydro-furo[3,2-b]furan-2-one] | Neither HNE nor ascorbylated HNE caused a change of ICAM-1 expression |  | not cytotoxic at any of the concentrations tested | 
 |  | hydroperoxy octadecadienoic acids [HPODE] |  |  |  | increase in ICAM-1 expression
